According to patent publication US20260091026A1, “METHODS OF TREATING INFLAMMATORY DISEASES” (INTERLINE THERAPEUTICS, INC., priority 2023, published 2026):

Legend:
RIPK2 (KD)/XIAP (BIR2) = molecular target: T1, RIPK2 (KD)/XIAP (BIR2) (Homo sapiens, UniProt O43353); test: RIPK2-XIAP binding competition PPI assay (TR-FRET); details: for Emax: 50 nM of GSK583 = -100% activity, read-out: PPI Amax; for IC50: GST-RIPK2 / His-XIAP (BIR2)-avi, 120 min at 23° C.
T1 construct: made in house; host or cells: baculovirus-infected Sf9 cells
In short: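 TR-FRET competition between GST-RIPK2 (aa 1-310, 1 nM) and His-XIAP BIR2-avi (aa 152-231, 25 nM), both Sf9-expressed, detected with anti-His-XL665 and anti-GST-Tb in Tris pH 7.5 buffer with MgCl2, DTT and vanadate. Incubation was 120 min at 23 °C; the 665/520 nm ratio was normalized to no inhibitor (0%) and 50 nM GSK583 (−100%).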

[1] = molecular target: T2, GST-RIPK2 fusion protein (human RIPK2 amino acids 1-310) (Homo sapiens, UniProt O43353); test: RIPK2 binding competition assay (TR-FRET, Tracer 199); details: displacement of Tracer 199 (10 nM), 45 min at 22° C.
T2 construct: made in house; host or cells: baculovirus-infected Sf9 cells
From the text: The ability of selected compounds of Formulas (I) and (II) to inhibit the binding of an Alexa647-labelled ATP-competitive kinase inhibitor to a GST-RIPK2 fusion protein was quantified employing the TR-FRET-based RIPK2 binding competition assay as described in the following paragraphs.
Recombinant fusion protein of N-terminal Glutathione-S-Transferase (GST) and a fragment of human RIPK2 (amino acids 1-310 of accession number 043353), expressed in baculovirus infected Sf9 cells, purified via glutathione affinity chromatography, was used as GST-RIPK2 fusion protein. Tracer 199 from Life Technologies (catalogue no. PR9115B) was used as Alexa647-labelled ATP-competitive kinase inhibitor.
For the assay, 50 nL of a 100-fold concentrated solution of each test compound in DMSO was pipetted into either a black low volume 384-well microtiter plate or a black 1536-well microtiter plate (both Greiner Bio-One, Frickenhausen, Germany), 3 μL solution of Tracer 199 (16.7 nM=>final concentration in 5 μL assay volume is 10 nM) in aqueous assay buffer (25 mM Tris/HCl pH 7.5, 10 mM magnesium chloride (MgCl2), 5 mM β-glycerophosphate, 2.5 mM dithiothreitol (DTT), 0.5 mM ethylene glycol-bis(2-aminoethylether)-N,N,N′,N′-tetraacetic acid (EGTA), 0.5 mM sodium ortho-vanadate, 0.01% (w/v) bovine serum albumin (BSA), 0.005% (w/v) Pluronic F-127 (Sigma)) were added. Then the binding competition was started by the addition of 2 μL of a solution of the GST-RIPK2 fusion protein (2.5 nM=>final conc. in the 5 μL assay volume is 1 nM) and of Anti-GST-Tb (1.25 nM=>final conc. in the 5 μL assay volume is 0.5 nM), a Lumi4®—Tb cryptate-conjugated anti-GST antibody from PerkinElmer (catalogue no 61GSTTAH), in assay buffer.
The resulting mixture was incubated 45 min at 22° C. to allow the formation of a complex between the Tracer 199, the fusion protein and Anti-GST-Tb. Subsequently, the amount of this complex was evaluated by measurement of the resonance energy transfer from the Tb-cryptate to the Tracer 199. Therefore, the fluorescence emissions at 620 nm and 665 nm after excitation at 337 nm were measured in a TR-FRET reader, e.g. a Pherastar FS(BMG Labtechnologies, Offenburg, Germany) or a Viewlux (PerkinElmer). The ratio of the emissions at 665 nm and at 620 nm was taken as the measure of the amount of the complex. The data were normalized (assay reaction without inhibitor=0% activity, all other assay components but no GST-RIPK2 fusion protein=−100% activity).

[2] = test system: THP1-Dual cells, NF-κB pathway (SEAP); test: THP-1 Dual cell SEAP assay (L18-MDP stimulated); format: cell-based; details: Homo sapiens, 10 ng/mL L18-MDP, 20-24 h, SEAP readout, read-out: IFNγ THP1 IC50
In short: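 About 25,000 THP1-Dual cells per well were preincubated 30 min with serially diluted compound, then stimulated overnight (20-24 h, 37 °C) with 10 ng/mL L18-MDP (final). NF-κB-driven SEAP in supernatant was read with QUANTI-Blue at OD 620-655 nm after 2 h; % inhibition versus DMSO/L18-MDP wells was fitted by non-linear regression to give IC50.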

T2 sequence (O43353 1-310): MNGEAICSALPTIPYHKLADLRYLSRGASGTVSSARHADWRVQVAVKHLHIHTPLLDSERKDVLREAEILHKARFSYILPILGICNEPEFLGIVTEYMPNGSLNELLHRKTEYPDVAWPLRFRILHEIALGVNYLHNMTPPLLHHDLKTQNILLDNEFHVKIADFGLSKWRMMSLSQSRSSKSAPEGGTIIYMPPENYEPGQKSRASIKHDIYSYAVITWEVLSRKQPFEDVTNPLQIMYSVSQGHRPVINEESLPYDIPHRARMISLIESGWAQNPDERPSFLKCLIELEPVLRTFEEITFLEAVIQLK
T1 sequence (O43353 1-310): as above

| Structure (SMILES) | Emax (RIPK2 (KD)/XIAP (BIR2)) [%] | IC50 (RIPK2 (KD)/XIAP (BIR2)) [nM] | IC50 [1] [nM] | IC50 [2] [nM] |
| --- | --- | --- | --- | --- |
| COc1cc2ncc(-n3cc(NC(=O)[C@@H]4C[C@H]4c4ccccc4)cn3)n2cc1S(=O)(=O)C(C)(C)C [Example 168, (1R,2R)-N-(1-(6-(tert-butylsulfonyl)-7-methoxyimidazo[1,2-a]pyridin-3-yl)-1H-pyrazol-4-yl)-2-phenylcyclopropane-1-carboxamide] | ≥ 80 | > 1000 | > 1000 | > 2500 |
| COc1cc2ncc(-n3cc(NC(=O)C4(F)CCCCC4)cn3)n2cc1S(=O)(=O)C(C)(C)C [Example 169, N-(1-(6-(tert-butylsulfonyl)-7-methoxyimidazo[1,2-a]pyridin-3-yl)-1H-pyrazol-4-yl)-1-fluorocyclohexane-1-carboxamide] | ≥ 80 | > 1000 | 200 to 500 | > 2500 |
| COc1cc2ncc(-n3cc(NC(=O)c4ccccc4)cn3)n2cc1S(=O)(=O)C(C)(C)C [Example 170, N-(1-(6-(tert-butylsulfonyl)-7-methoxyimidazo[1,2-a]pyridin-3-yl)-1H-pyrazol-4-yl)benzamide] | 55 to 80 | > 1000 | > 1000 | > 2500 |
| COc1cc2ncc(-n3cc(NC(=O)[C@H]4C[C@H]4c4ccccc4)cn3)n2cc1S(=O)(=O)C(C)(C)C [Example 171, (1S,2R)-N-(1-(6-(tert-butylsulfonyl)-7-methoxyimidazo[1,2-a]pyridin-3-yl)-1H-pyrazol-4-yl)-2-phenylcyclopropane-1-carboxamide] | ≥ 80 | 100 to 1000 | < 200 | 500 to 2500 |
| COc1cc2ncc(-n3cc(NC(=O)[C@H]4CC[C@@H](O)CC4)cn3)n2cc1S(=O)(=O)C(C)(C)C [Example 172, (1s,4s)-N-(1-(6-(tert-butylsulfonyl)-7-methoxyimidazo[1,2-a]pyridin-3-yl)-1H-pyrazol-4-yl)-4-hydroxycyclohexane-1-carboxamide] | 30 to 55 | > 1000 | > 1000 | > 2500 |
| COc1cc2ncc(-n3cc(N(C)C(=O)Cc4ccccc4Cl)cn3)n2cc1S(=O)(=O)C(C)(C)C [Example 173, N-(1-(6-(tert-butylsulfonyl)-7-methoxyimidazo[1,2-a]pyridin-3-yl)-1H-pyrazol-4-yl)-2-(2-chlorophenyl)-N-methylacetamide] | ≥ 80 | > 1000 | > 1000 | > 2500 |
| COc1cc2ncc(-n3cc(NC(=O)C4(F)CCC5(CC5)CC4)cn3)n2cc1S(=O)(=O)C(C)(C)C [Example 174, N-(1-(6-(tert-butylsulfonyl)-7-methoxyimidazo[1,2-a]pyridin-3-yl)-1H-pyrazol-4-yl)-6-fluorospiro[2.5]octane-6-carboxamide] | ≥ 80 | > 1000 | 500 to 1000 | > 2500 |
| COc1cc2ncc(-n3cc(NC(=O)C4(C)CCCCC4)cn3)n2cc1S(=O)(=O)C(C)(C)C [Example 175, N-(1-(6-(tert-butylsulfonyl)-7-methoxyimidazo[1,2-a]pyridin-3-yl)-1H-pyrazol-4-yl)-1-methylcyclohexane-1-carboxamide] | 55 to 80 | > 1000 | > 1000 | > 2500 |
| COc1cc2ncc(-c3cc(NC(=O)C4(F)CCCCC4)n(C)n3)n2cc1S(=O)(=O)C(C)(C)C [Example 176, N-(3-(6-(tert-butylsulfonyl)-7-methoxyimidazo[1,2-a]pyridin-3-yl)-1-methyl-1H-pyrazol-5-yl)-1-fluorocyclohexane-1-carboxamide] | ≥ 80 | 100 to 1000 | < 200 | 500 to 2500 |
| COc1cc2ncc(-n3cc(N4CCC5(CCCCC5)C4=O)cn3)n2cc1S(=O)(=O)C(C)(C)C [Example 181, 2-(1-(6-(tert-butylsulfonyl)-7-methoxyimidazo[1,2-a]pyridin-3-yl)-1H-pyrazol-4-yl)-2-azaspiro[4.5]decan-1-one] | 30 to 55 | > 1000 | > 1000 | > 2500 |
| CN1CCC(Nc2cncc(-c3cc(NC(=O)Cc4ccccc4Cl)n(C)n3)c2)CC1 [Example 184, 2-(2-chlorophenyl)-N-(1-methyl-3-(5-((1-methylpiperidin-4-yl)amino)pyridin-3-yl)-1H-pyrazol-5-yl) acetamide] | ≥ 80 | 100 to 1000 | < 200 | > 2500 |
| COc1cc2ncc(-c3cc(NC(=O)Cc4ccccc4Cl)n(C)n3)n2cc1S(=O)(=O)C(C)(C)C [Example 185, N-(3-(6-(tert-butylsulfonyl)-7-methoxyimidazo[1,2-a]pyridin-3-yl)-1-methyl-1H-pyrazol-5-yl)-2-(2-chlorophenyl)acetamide] | ≥ 80 | 10 to 100 | < 200 | 500 to 2500 |
| COc1cc2ncc(-c3cc(NC(=O)Cc4ccccc4Cl)n(C)n3)n2cc1C1(F)CCN(C)CC1 [Example 186, 2-(2-chlorophenyl)-N-(3-(6-(4-fluoro-1-methylpiperidin-4-yl)-7-methoxyimidazo[1,2-a]pyridin-3-yl)-1-methyl-1H-pyrazol-5-yl)acetamide] | ≥ 80 | 10 to 100 | < 200 | 500 to 2500 |
| COc1cc2ncc(-c3cc(NC(=O)C4(F)CCCCC4)n(CCO)n3)n2cc1S(=O)(=O)C(C)(C)C [Example 193, N-(3-(6-(tert-butylsulfonyl)-7-methoxyimidazo[1,2-a]pyridin-3-yl)-1-(2-hydroxyethyl)-1H-pyrazol-5-yl)-1-fluorocyclohexane-1-carboxamide] | ≥ 80 | 100 to 1000 | < 200 | > 2500 |
| COc1ccn2ncc(-c3cc(NC(=O)C4(F)CCCCC4)n(CCO)n3)c2n1 [compound 194] | ≤ 30 | > 1000 | > 1000 | > 2500 |
